Key:
LU1901 lung tumor model = assay: LU1901 xenograft in vivo efficacy; set-up: species or system nu/nu mice; conditions: tumor weight reduction
Method: (§1) For all other tumors as listed in table 2 & 3 the experiments were carried out in an analogous way as described above.

[1] = system: MFM223 breast tumor model; assay: MFM223 xenograft in vivo efficacy; set-up: species or system nu/nu mice; conditions: tumor weight reduction
Method: as §1

OMP2 myeloma tumor model = assay: OMP2 xenograft in vivo efficacy; set-up: species or system nu/nu mice; conditions: tumor weight reduction
Method: as §1

[2] = system: A2780 ovarian tumor model; assay: A2780 xenograft in vivo efficacy; set-up: species or system nu/nu mice; conditions: tumor weight reduction
Method: as §1

[3] = system: RT112 bladder tumor model; assay: RT112 xenograft in vivo efficacy; set-up: species or system nu/nu mice; conditions: tumor weight reduction
Method: as §1

HepG2 liver tumor model = assay: HepG2 xenograft in vivo efficacy; set-up: species or system nu/nu mice; conditions: tumor weight reduction
Method: as §1

DMS114 lung tumor model = assay: DMS114 xenograft in vivo efficacy; set-up: species or system nu/nu mice; conditions: tumor weight reduction
Method: as §1

LU299 lung tumor model = assay: LU299 xenograft in vivo efficacy; set-up: species or system nu/nu mice; conditions: tumor weight reduction
Method: as §1

[4] = system: SNU16 gastric tumor model; assay: SNU16 xenograft in vivo efficacy; set-up: species or system nu/nu mice; conditions: tumor weight reduction
Method: as §1

[5] = system: OVXF1023 ovarian carcinoma; assay: OVXF1023 patient-derived xenograft study; type: in vivo, nu/nu mice
Text: Female, 5-7 weeks old immunocompromised nu/nu mice (18-24 g) from Janvier (France) were used for the patient-derived OVX1023 ovarian carcinoma study.
The animals were housed in individually ventilated cages ([…] Sealsafe™-IVC-System, […], Hohenpeissenberg, Germany) and were kept under a 14L:10D artificial light cycle. The animals were monitored twice daily. Depending on group size, either type III cages or type II long cages were used. Dust-free bedding consisting of aspen wood chips with approximate dimensions of 5×5×1 mm (ABEDD®—LAB & VET Service GmbH, Vienna, Austria, Product Code: LTE E-001) were used. Additional nesting material was routinely added. […]
All experiments were approved by the local authorities, and were conducted according to all applicable international, national and local laws and guidelines. […] Animals were routinely monitored twice daily on working days and daily on weekends and public holidays. […]
Tumor size was measured twice weekly in two dimensions using a caliper, and the volume was expressed in mm^3 using the formula: V=0.5a×b^2 where a and b are the long and short diameters of the tumor, respectively. […] T-C was calculated with T as the time (in days) required for the mean tumor size of the treatment group to reach a predetermined size (e.g. 1000 mm^3), and C was the time (in days) for the mean tumor size of the control group to reach the same size. […]

[6] = system: HN9897 Head & Neck squamous cell carcinoma; assay: HN9897 patient-derived xenograft study; type: in vivo, nu/nu mice
H716 colon tumor model = assay: H716 xenograft in vivo efficacy; set-up: species or system nu/nu mice; conditions: tumor weight reduction
Method: as §1

LU0697 lung tumor model = assay: LU0697 xenograft in vivo efficacy; set-up: species or system nu/nu mice; conditions: tumor weight reduction
Method: as §1

[7] = system: HNXF908 head&neck tumor model; assay: HNXF908 xenograft in vivo efficacy; set-up: species or system nu/nu mice; conditions: tumor weight reduction
Method: as §1

[8] = system: ES204 esophagus squamous cell carcinoma; assay: ES204 patient-derived xenograft study; type: in vivo, nu/nu mice
Method: Female, 6-8 weeks old immunocompromised nu/nu mice (18-24 g) from Vital River (China) were used for the patient-derived ES204 esophagus squamous cell carcinoma study.
Experiment was initiated after a minimal acclimatization period of 6 days. Mice were kept in a 12 hours light/dark cycle, food and water was available ad libitum and housing temperature was 20-26° C. All the procedures related to animal handling, care, and the treatment in this study were performed according to the guidelines approved by the Institutional Animal Care and Use Committee (IACUC) of CrownBio following the guidance of the Association for Assessment and Accreditation of Laboratory Animal Care (AAALAC). […]
Tumor fragments from stock mice inoculated with selected primary human esophagus cancer tissues (ES204) were harvested and used for inoculation onto female nu/nu nude mice. […] Tumors were sampled when mice in the control group reached sacrificing criteria, and final tumor weights were measured on day 23 post treatment start.
Tumor size was measured twice weekly in two dimensions using a caliper, and the volume was expressed in mm^3 using the formula: V=0.5a×b^2 where a and b are the long and short diameters of the tumor, respectively. […]
Descriptive statistics for all groups were performed on final tumor areas and tumor weights at day of the necropsy. Statistical analysis was assessed using the SigmaStat software. […]

[9] = system: HN366 head&neck tumor model; assay: HN366 xenograft in vivo efficacy; set-up: species or system nu/nu mice; conditions: tumor weight reduction
Method: as §1

COCc1c(-c2cc3cc(C)cc(OC)c3s2)c2c(N)ncnn2c1CN1CCNC(=O)C1 [compound of formula (I)]
in vivo efficacy (LU1901 lung tumor model): no (All models in which the tumor weight was reduced upon treatment with compounds of formula (I) by at least 50% were considered to be efficacious in vivo.)
in vivo efficacy [1]: yes (All models in which the tumor weight was reduced upon treatment with compounds of formula (I) by at least 50% were considered to be efficacious in vivo.)
in vivo efficacy (OMP2 myeloma tumor model): no (All models in which the tumor weight was reduced upon treatment with compounds of formula (I) by at least 50% were considered to be efficacious in vivo.)
in vivo efficacy [2]: yes (All models in which the tumor weight was reduced upon treatment with compounds of formula (I) by at least 50% were considered to be efficacious in vivo.)
in vivo efficacy [3]: yes (All models in which the tumor weight was reduced upon treatment with compounds of formula (I) by at least 50% were considered to be efficacious in vivo.)
in vivo efficacy (HepG2 liver tumor model): no (All models in which the tumor weight was reduced upon treatment with compounds of formula (I) by at least 50% were considered to be efficacious in vivo.)
in vivo efficacy (DMS114 lung tumor model): yes (All models in which the tumor weight was reduced upon treatment with compounds of formula (I) by at least 50% were considered to be efficacious in vivo.)
in vivo efficacy (LU299 lung tumor model): yes (All models in which the tumor weight was reduced upon treatment with compounds of formula (I) by at least 50% were considered to be efficacious in vivo.)
in vivo efficacy [4]: yes (All models in which the tumor weight was reduced upon treatment with compounds of formula (I) by at least 50% were considered to be efficacious in vivo.)
T/C at day 38 post treatment start ([5]; OVXF1023, 35 mg/kg 2QD 5 days on- 2 days off po, treated mean/vehicle mean tumor volume): 0.2
in vivo efficacy ([5]; OVXF1023 ovarian model, tumor weight reduction): yes (All models in which the tumor weight was reduced upon treatment with compounds of formula (I) by at least 50% were considered to be efficacious in vivo.)
T/C at day 44 post treatment start ([6]; HN9897, 50 mg/kg 2QD po, treated mean/vehicle mean tumor volume): 0.08
in vivo efficacy ([6]; HN9897 head&neck model, tumor weight reduction): yes (All models in which the tumor weight was reduced upon treatment with compounds of formula (I) by at least 50% were considered to be efficacious in vivo.)
in vivo efficacy (H716 colon tumor model): yes (All models in which the tumor weight was reduced upon treatment with compounds of formula (I) by at least 50% were considered to be efficacious in vivo.)
in vivo efficacy (LU0697 lung tumor model): yes (All models in which the tumor weight was reduced upon treatment with compounds of formula (I) by at least 50% were considered to be efficacious in vivo.)
in vivo efficacy [7]: yes (All models in which the tumor weight was reduced upon treatment with compounds of formula (I) by at least 50% were considered to be efficacious in vivo.)
T/C at day 23 post treatment start ([8]; ES204, 50 mg/kg 2QD po, treated mean/vehicle mean tumor volume): 0.1
in vivo efficacy ([8]; ES204 esophageal model, tumor weight reduction): yes (All models in which the tumor weight was reduced upon treatment with compounds of formula (I) by at least 50% were considered to be efficacious in vivo.)
in vivo efficacy [9]: yes (All models in which the tumor weight was reduced upon treatment with compounds of formula (I) by at least 50% were considered to be efficacious in vivo.)
